The assay concerns the target acyl-CoA:cholesterol acyltransferase (ACAT). Briefly: in vitro ACAT inhibition test (formation of radio-labeled cholesterol oleate from radio-labeled oleic acid in rabbit intestinal microsomes). It is filed as biochemical. The conditions noted are these: tissue preparation containing rabbit intestinal microsomes; acylation of cholesterol by oleic acid; read-out: IC₅₀.

Excerpt: The test assesses the ability of a test compound to inhibit the acylation of cholesterol by oleic acid by measuring the amount of radio-labeled cholesterol oleate formed from radio-labeled oleic acid in a tissue preparation containing rabbit intestinal microsomes.

Take `CC(C)c1cccc(C(C)C)c1NC(=O)NCc1cccc2ccccc12` [Example 9, N-[2,6-bis(1-Methylethyl)phenyl]-N′-[(1-naphthalenyl)methyl]urea]: the IC50 is 34 nM.

Regarding `CC(C)c1cccc(C(C)C)c1NC(=O)N[C@H](C)c1cccc2ccccc12` [Example 12, [R]-N-[2,6-bis(1-Methylethyl)phenyl]-N′-[1-(1-naphthalenyl)ethyl]urea], the IC50 was 35 nM.

`CC(C)c1cccc(C(C)C)c1NC(=O)NCC(C)c1ccccc1` (stereo not shown) [Example 7]: the IC50 turned out to be 35 nM.

For `CC(C)c1cccc(C(C)C)c1NC(=O)NCCCc1ccccc1` [Example 8, N-[2,6-bis(1-Methylethyl)phenyl]-N′-(3-phenylpropyl)urea], the IC50 came out at 191 nM.

For `CC(C)c1cccc(C(C)C)c1NC(=O)NCCc1ccccc1` [Example 6, N-[2,6-bis(1-Methylethyl)phenyl]-N′-(2-phenylethyl)urea], the IC50 turned out to be 88 nM.

In the case of `CC(C)c1cccc(C(C)C)c1NC(=O)N[C@@H](C)c1cccc2ccccc12` [Example 13, [S]-N-[2,6-bis(1-Methylethyl)phenyl]-N′-[1-(1-naphthalenyl)ethyl]urea], the IC50 amounted to 630 nM.

As to `CC(C)c1cccc(C(C)C)c1NC(=O)NCCc1cccc2ccccc12` [Example 10, N-[2,6-bis(1-Methylethyl)phenyl]-N′-[2-(1-naphthalenyl)ethyl]urea], the IC50 came to 41 nM.

For `CCCC(CCC)(CNC(=O)Nc1c(C(C)C)cccc1C(C)C)c1ccccc1` [Example 1, N-[2,6-bis(1-Methylethyl)phenyl]-N′-(2-phenyl-2-propylpentyl)urea], the IC50 is 30 nM.

As for `CCCCC(CCCC)(CNC(=O)Nc1c(C(C)C)cccc1C(C)C)c1ccccc1` [Example 5, N-[2,6-bis(1-Methylethyl)phenyl]-N′-(2-butyl-2-phenylhexyl)urea], the IC50 was found to be 30 nM.

For the molecule `CCC(CC)(CNC(=O)Nc1c(C(C)C)cccc1C(C)C)c1ccccc1` [Example 2, N-[2,6-bis(1-Methylethyl)phenyl]-N′-(2-ethyl-2-phenylbutyl)urea], the IC50 was 17 nM.

For the origin of these results see patent publication EP0344425A2, “N-[[(2,6-disubstituted)phenyl]-N'- arylalkyl] ureas as antihypercholesterolemic and antiatherosclerotic agents” (WARNER-LAMBERT COMPANY, priority 1988, dated 1989).
